Legend:
[1] = target: Recombinant human JAK1 catalytic domain (Homo sapiens (Human), UniProt P23458); assay: JAK1 inhibition assay; format: biochemical; settings: semi-quantitative score
In short: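 Radiometric assay read by scintillation counting after phosphoric-acid washes. Percent inhibition calculated from cpm relative to vehicle and 10 μM staurosporine control. IC50 derived from compound dose-dilution series.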

[2] = target: Recombinant human JAK2 catalytic domain (Homo sapiens (Human), UniProt O60674); assay: JAK2 inhibition assay; format: biochemical; settings: semi-quantitative score
Recombinant human JAK2 catalytic domain, sequence (O60674 808-1132): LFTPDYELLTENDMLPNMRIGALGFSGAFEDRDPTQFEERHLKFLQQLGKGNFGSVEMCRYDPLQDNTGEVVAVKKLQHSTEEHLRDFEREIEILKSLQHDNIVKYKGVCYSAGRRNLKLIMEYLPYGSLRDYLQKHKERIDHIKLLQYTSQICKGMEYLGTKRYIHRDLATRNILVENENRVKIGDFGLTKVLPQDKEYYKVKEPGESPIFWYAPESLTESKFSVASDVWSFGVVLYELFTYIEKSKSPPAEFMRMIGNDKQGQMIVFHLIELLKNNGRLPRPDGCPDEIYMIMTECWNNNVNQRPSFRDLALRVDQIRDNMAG
Procedure: After 90 min at 30° C., reactions were stopped by adding of 25 μL/well of 150 mM phosphoric acid. […] Plates were washed 6 times with 300 μL per well of a 75 mM phosphoric acid solution and the bottom of the plates was sealed. 40 μL/well of Microscint-20 was added, the top of the plates was sealed and readout was performed using the Topcount (Perkin Elmer). Kinase activity was calculated by subtracting counts per minute (cpm) obtained in the presence of a positive control inhibitor (10 μM staurosporine) from cpm obtained in the presence of vehicle. The ability of a test compound to inhibit this activity was determined as: Percentage inhibition=((cpm determined for sample with test compound present−cpm determined for sample with positive control inhibitor) divided by (cpm determined in the presence of vehicle−cpm determined for sample with positive control inhibitor))*100%.
Dose dilution series were prepared for the compounds enabling the testing of dose-response effects in the JAK2 assay and the calculation of the IC50 for each compound.

[3] = tested on: JAK-STAT signalling in HeLa cells; assay: JAK-STAT signalling assay (OSM-triggered pSTAT1(2)-luciferase reporter in HeLa cells); format: cell-based; settings: Homo sapiens; HeLa cells, OSM-triggered pSTAT1(2)-luciferase reporter; read-out: STAT signalling EC50
Procedure: HeLa cells were maintained in Dulbecco's Modified Eagle's Medium (DMEM) containing 10% heat inactivated fetal calf serum, 100 U/mL penicillin and 100 μg/mL streptomycin. HeLa cells were used at 70% confluence for transfection. 20,000 cells in 87 μL cell culture medium were transiently transfected with 40 ng pSTAT1(2)-luciferase reporter (Panomics), 8 ng of LacZ reporter as internal control reporter and 52 ng of pBSK using 0.32 μL Jet-PEI (Polyplus) as transfection reagent per well in 96-well plate format. After overnight incubation at 37° C., 10% CO2, transfection medium was removed.
40 μL of cell lysate was used to read β-galactosidase activity by adding 180 μL βGal solution (30 μl ONPG 4 mg/mL+150 μL β-Galactosidase buffer (0.06 M Na2HPO4, 0.04 M NaH2PO4, 1 mM MgCl2)) for 20 min.
Luciferase activity was measured using 40 μL cell lysate plus 40 μl of Steadylite® as described by the manufacturer (Perkin Elmer), on the Envision (Perkin Elmer).
The positive and negative controls were used to calculate z’ and ‘percent inhibition’ (PIN) values.
PIN values were plotted for compounds tested in dose-response and EC50 values were derived.

Recombinant human JAK1 catalytic domain, sequence (P23458 850-1154): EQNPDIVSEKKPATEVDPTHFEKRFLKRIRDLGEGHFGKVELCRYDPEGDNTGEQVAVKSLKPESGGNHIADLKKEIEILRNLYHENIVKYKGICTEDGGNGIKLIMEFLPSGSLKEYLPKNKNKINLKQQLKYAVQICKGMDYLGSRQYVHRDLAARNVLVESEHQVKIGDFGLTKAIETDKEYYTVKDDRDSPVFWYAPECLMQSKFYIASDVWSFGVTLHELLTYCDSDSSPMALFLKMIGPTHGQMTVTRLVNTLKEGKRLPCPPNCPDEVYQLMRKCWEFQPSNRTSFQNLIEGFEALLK

Row | Compound | IC50 [1] [nM] | IC50 [2] [nM] | EC50 [3] [nM]
1 | O=C(Nc1nc2cccc(-c3ccc(C(=O)N4CC(N5CCOCC5)C4)cc3)n2n1)C1CC1 [Compound 326, Cyclopropanecarboxylic acid {5-[4-(3-morpholin-4-yl-azetidine-1-carbonyl)-phenyl]-[1,2,4]triazolo[1,5-a]pyridin-2-yl}-amide] | 101 to 500 | > 1000 | > 1000
2 | Cc1ccc(C(N)=O)cc1NCc1ccc(-c2cccc3nc(NC(=O)C4CC4)nn23)cc1 [Compound 249] | < 100 | – | > 1000
3 | CN(C)C1CN(C(=O)c2ccc(-c3cccc4nc(NC(=O)C5CC5)nn34)cc2)C1 [Compound 327, Cyclopropanecarboxylic acid {5-[4-(3-dimethylamino-azetidine-1-carbonyl)-phenyl]-[1,2,4]triazolo[1,5-a]pyridin-2-yl}-amide] | 101 to 500 | > 1000 | > 1000
4 | O=C1CN(C(=O)c2ccc(-c3cccc4nc(NC(=O)C5CC5)nn34)cc2)CCN1 [Compound 277, Cyclopropanecarboxylic acid [5-[4-(3-oxo-piperazine-1-carbonyl)-phenyl]-[1,2,4]triazolo[1,5-a]pyridin-2-yl}-amide] | < 100 | 101 to 500 | > 1000
5 | N#CC1CCN(Cc2ccc(-c3cccc4nc(NC(=O)C5CC5)nn34)cc2)CC1 [Compound 232, Cyclopropanecarboxylic acid {5-[4-(4-cyano-piperidin-1-ylmethyl)-phenyl]-[1,2,4]triazolo[1,5-a]pyridin-2-yl}-amide] | < 100 | 101 to 500 | > 1000
6 | N#CC1CN(Cc2ccc(-c3cccc4nc(NC(=O)C5CC5)nn34)cc2)C1 [Compound 303, Cyclopropanecarboxylic acid {5-[4-(3-cyano-azetidin-1-ylmethyl)-phenyl]-[1,2,4]triazolo[1,5-a]pyridin-2-yl}-amide] | < 100 | 101 to 500 | 501 to 1000
7 | O=C(NCc1ccc(-c2cccc3nc(NC(=O)C4CC4)nn23)cc1)C1CCC1 [Compound 268, Cyclobutanecarboxylic acid 4-[2-(cyclopropanecarbonyl-amino)-[1,2,4]triazolo[1,5-a]pyridin-5-yl]-benzylamide] | < 100 | – | > 1000
8 | CN(C)CC1CN(Cc2ccc(-c3cccc4nc(NC(=O)C5CC5)nn34)cc2)C1 [Compound 298, Cyclopropanecarboxylic acid {5-[4-(3-dimethylaminomethyl-azetidin-1-ylmethyl)-phenyl]-[1,2,4]triazolo[1,5-a]pyridin-2-yl}-amide] | > 1000 | > 1000 | –
9 | O=C(Nc1nc2cccc(-c3ccc(CN4C[C@@H]5C[C@H]4CO5)cc3)n2n1)C1CC1 [Compound 230, Cyclopropanecarboxylic acid (5-{4-[(1S,4S)-1-(2-oxa-5-aza-bicyclo[2.2.1]hept-5-yl)methyl]-phenyl}-[1,2,4]triazolo[1,5-a]pyridin-2-yl)-amide] | 101 to 500 | 101 to 500 | –
10 | O=C(Nc1nc2cccc(-c3ccc(C(=O)N4CCCC(C(=O)N5CCCCC5)C4)cc3)n2n1)C1CC1 (stereo not shown) [Compound 290, Cyclopropanecarboxylic acid (5-{4-[3-(piperidine-1-carbonyl)-piperidine-1-carbonyl]-phenyl}-[1,2,4]triazolo[1,5-a]pyridin-2-yl)-amide] | 101 to 500 | > 1000 | –
11 | CC(=O)N(C)C1CN(Cc2ccc(-c3cccc4nc(NC(=O)C5CC5)nn34)cc2)C1 [Compound 283, Cyclopropanecarboxylic acid (5-{4-[3-(acetyl-methyl-amino)-azetidin-1-ylmethyl]-phenyl}-[1,2,4]triazolo[1,5-a]pyridin-2-yl)-amide] | > 1000 | > 1000 | –
12 | CC1(C)CN(Cc2ccc(-c3cccc4nc(NC(=O)C5CC5)nn34)cc2)C1 [Compound 314, Cyclopropanecarboxylic acid {5-[4-(3,3-dimethyl-azetidin-1-ylmethyl)-phenyl]-[1,2,4]triazolo[1,5-a]pyridin-2-yl}-amide] | 101 to 500 | > 1000 | –
13 | O=C(Nc1nc2cccc(-c3ccc(CN4CC[C@H](O)C4)cc3)n2n1)C1CC1 [Compound 305, Cyclopropanecarboxylic acid {5-[4-((S)-3-hydroxy-pyrrolidin-1-ylmethyl)-phenyl]-[1,2,4]triazolo[1,5-a]pyridin-2-yl}-amide] | 101 to 500 | > 1000 | –
14 | O=C(Nc1nc2cccc(-c3ccc(CN4CCC(O)CC4)cc3)n2n1)C1CC1 [Compound 242, Cyclopropanecarboxylic acid {5-[4-(4-hydroxy-piperidin-1-ylmethyl)-phenyl]-[1,2,4]triazolo[1,5-a]pyridin-2-yl}-amide] | 101 to 500 | 501 to 1000 | –
15 | CC(C)(O)C1CCN(Cc2ccc(-c3cccc4nc(NC(=O)C5CC5)nn34)cc2)CC1 [Compound 243, Cyclopropanecarboxylic acid (5-{4-[4-(1-hydroxy-1-methyl-ethyl)-piperidin-1-ylmethyl]-phenyl}-[1,2,4]triazolo[1,5-a]pyridin-2-yl)-amide] | 101 to 500 | 501 to 1000 | –
16 | CC(C)(C)OC(=O)NC1CN(Cc2ccc(-c3cccc4nc(NC(=O)C5CC5)nn34)cc2)C1 [Compound 279, (1-{4-[2-(Cyclopropanecarbonyl-amino)-[1,2,4]triazolo[1,5-a]pyridin-5-yl]-benzyl}-azetidin-3-yl)-carbamic acid tert-butyl ester] | 101 to 500 | > 1000 | –
17 | CN1CCN(C(=O)NCc2ccc(-c3cccc4nc(NC(=O)C5CC5)nn34)cc2)CC1 [Compound 308, 4-Methyl-piperazine-1-carboxylic acid 4-[2-(cyclopropanecarbonyl-amino)-[1,2,4]triazolo[1,5-a]pyridin-5-yl]-benzylamide] | 101 to 500 | > 1000 | –
18 | COC1CN(C(=O)Cc2ccc(-c3cccc4nc(NC(=O)C5CC5)nn34)cc2)C1 [Compound 321, Cyclopropanecarboxylic acid (5-{4-[2-(3-methoxy-azetidin-1-yl)-2-oxo-ethyl]-phenyl} - [1,2,4]triazolo[1,5-a]pyridin-2 yl)-amide] | < 100 | – | > 1000
19 | CCN(CC)C(=O)C1CCCN(C(=O)c2ccc(-c3cccc4nc(NC(=O)C5CC5)nn34)cc2)C1 (stereo not shown) [Compound 295, 1-{4-[2-(Cyclopropanecarbonyl-amino)-[1,2,4]triazolo[1,5-a]pyridin-5-yl]-benzoyl}-piperidine-3-carboxylic acid diethylamide] | 101 to 500 | > 1000 | –
20 | CN(C)C(=O)C1CN(C(=O)Cc2ccc(-c3cccc4nc(NC(=O)C5CC5)nn34)cc2)C1 [Compound 324, 1-(2-{4-[2-(Cyclopropanecarbonyl-amino)-[1,2,4]triazolo[1,5-a]pyridin-5-yl]-phenyl}-acetyl)-azetidine-3-carboxylic acid dimethylamide] | > 1000 | > 1000 | –
21 | CC(=O)N1CCN(C(=O)c2ccc(-c3cccc4nc(NC(=O)C5CC5)nn34)cc2)CC1 [Compound 220, Cyclopropanecarboxylic acid {5-[4-(4-acetyl-piperazine-1-carbonyl)-phenyl]-[1,2,4]triazolo[1,5-a]pyridin-2-yl}-amide] | 101 to 500 | 501 to 1000 | –
22 | CC1(C)COCCN1Cc1ccc(-c2cccc3nc(NC(=O)C4CC4)nn23)cc1 [Compound 213, Cyclopropanecarboxylic acid {5-[4-(3,3-dimethyl-morpholin-4-ylmethyl)-phenyl]-[1,2,4]triazolo[1,5-a]pyridin-2-yl}-amide] | 101 to 500 | 101 to 500 | –
23 | NC(=O)C1CCN(C(=O)c2ccc(-c3cccc4nc(NC(=O)C5CC5)nn34)cc2)CC1 [Compound 274, 1-{4-[2-(Cyclopropanecarbonyl-amino)-[1,2,4]triazolo[1,5-a]pyridin-5-yl]-benzoyl}-piperidine-4-carboxylic acid amide] | 101 to 500 | 501 to 1000 | –
24 | CC(=O)NC1CCCN(C(=O)c2ccc(-c3cccc4nc(NC(=O)C5CC5)nn34)cc2)C1 (stereo not shown) [Compound 296, Cyclopropanecarboxylic acid {5-[4-(3-acetylamino-piperidine-1-carbonyl)-phenyl]-[1,2,4]triazolo[1,5-a]pyridin-2-yl}-amide] | 101 to 500 | 501 to 1000 | –
25 | CCN(CC)C1CCN(Cc2ccc(-c3cccc4nc(NC(=O)C5CC5)nn34)cc2)CC1 [Compound 247, Cyclopropanecarboxylic acid {5-[4-(4-diethylamino-piperidin-1-ylmethyl)-phenyl]-[1,2,4]triazolo[1,5-a]pyridin-2-yl}-amide] | > 1000 | > 1000 | –

— patent US10206907B2, “Compounds useful for the treatment of degenerative and inflammatory diseases” (GALAPAGOS NV, priority 2008, dated 2019)
